In patent US20080293785A1, “SUBSTITUTED BENZOTHIAZOLE KINASE INHIBITORS” (priority 2006, published 2008):

Legend:
Type in all cases: biochemical
CDK2:Cyclin A = biological target: T1, CDK2:Cyclin A (Homo sapiens, UniProt P24941); assay: CDK2 Screening Assay; details: 10 μM ATP, biotinylated histone-H1 peptide substrate, 33P-γ-ATP FlashPlate; read-out: Kinase IC50 CDK2
T1 construct: purchased Upstate Biotech, Lake Placid, N.Y
Experimental: (§1) A kinase reaction mixture was prepared containing 50 mM Tris.HCl pH=8, 10 mM MgCl2, 0.1 mM Na3PO4, 1 mM DTT, 10 μM ATP, 0.025 μM biotinylated histone-H1 peptide substrate and 0.2 μCuries per well ^33P-γ-ATP (2000-3000 Ci/mmol). 70 μL of the kinase reaction mixture was dispensed into the well of a streptavidin coated FlashPlate™ (Cat. # SMP103, NEN, Boston, Mass.). Then 1 μL of test compound stock in 100% DMSO was added to the wells resulting in a final concentration of 1% DMSO in the reaction well with a 100 μL final reaction well volume.
(§2) The CDK2:Cyclin A protein was diluted in 50 mM Tris.HCl pH=8.0, 0.1% BSA at a concentration of 1 ng per μL and 30 μL (30 ng enzyme per test well) was added to each well to initiate the reaction. The reaction was incubated for one hour at 30° C. At the end of the one hour incubation, the reaction was terminated by aspirating the mixture from the plate and washing the wells twice with PBS containing 100 mM EDTA. The histone-H1 biotinylated peptide substrate became immobilized on the Flashplate™ and the incorporation of ^33P-γ-ATP was measured by reading the plate on a scintillation counter. Inhibition of the enzymatic activity of CDK2 was measured by observing a reduced amount of ^33P-γ-ATP incorporated into the immobilized peptide.
The CDK2 kinase used was complexed with cyclin A and is commercially available (Upstate Biotech, Lake Placid, N.Y.).
(§3) An IC50 listed as >0.1, >1, >10 or >100 means no observed 50% inhibition at the indicated test concentration. […] ND means the compound was not tested in the assay specified.

CDK1:Cyclin-B = biological target: T2, CDK1:Cyclin-B (Homo sapiens, UniProt P06493); assay: CDK1 Screening Assay; details: 10 μM ATP, biotinylated histone-H1 peptide substrate, 33P-γ-ATP FlashPlate; read-out: Kinase IC50 CDK1
T2 construct: purchased New England Biolabs, Beverly, Mass; 6020; host or cells: insect cells
Experimental: as §1
as §2, with “CDK1:Cyclin-B” for “CDK2:Cyclin A”, “CDK1” for “CDK2”
The CDK1 kinase used was isolated from insect cells expressing both the human CDK1 catalytic subunit and its positive regulatory subunit cyclin B (New England Biolabs, Beverly, Mass., Cat. # 6020).
as §3

VEGF-R2 kinase domain = VEGF-R2 kinase domain (Rattus norvegicus, UniProt O08775); assay: VEGF-R2 Screening Assay; details: 10 μM ATP, biotinylated PLC1 peptide substrate, 33P-γ-ATP FlashPlate; read-out: Kinase IC50 VEGFR
Experimental: as §1, with “biotinylated” for “biotinylated histone-H1”, “0.8” for “0.2”
The soluble rat tyrosine kinase containing an N-terminal 6×HIS tag was diluted in 50 mM Tris.HCl pH=8.0, 0.1% BSA at a concentration of 5 ng per μL and 30 μL (150 ng enzyme per test well) was added to each well to initiate the reaction. The reaction was incubated for one hour at 30° C. At the end of the one hour incubation, the reaction was terminated by aspirating the reaction mixture from the plate and washing the wells twice with PBS containing 100 mM EDTA. The PLC1 biotinylated peptide substrate became immobilized on the Flashplate™ and the incorporation of ^33P-γ-ATP was measured by reading the plate on a scintillation counter. Inhibition of the enzymatic activity of the VEGF-R was measured by observing a reduced amount of ^33P-γ-ATP incorporated into the immobilized peptide.
The VEGF-R kinase assay was carried out using the CDK kinase assay procedure except that the enzyme was replaced with the VEGF-R2 fusion protein containing a polyhistidine tag at the N-terminus followed by amino acids 786-1343 of the rat VEGF-R2 kinase domain (GenBank Accession #U93306).
as §3

T2 sequence (P06493 whole entry): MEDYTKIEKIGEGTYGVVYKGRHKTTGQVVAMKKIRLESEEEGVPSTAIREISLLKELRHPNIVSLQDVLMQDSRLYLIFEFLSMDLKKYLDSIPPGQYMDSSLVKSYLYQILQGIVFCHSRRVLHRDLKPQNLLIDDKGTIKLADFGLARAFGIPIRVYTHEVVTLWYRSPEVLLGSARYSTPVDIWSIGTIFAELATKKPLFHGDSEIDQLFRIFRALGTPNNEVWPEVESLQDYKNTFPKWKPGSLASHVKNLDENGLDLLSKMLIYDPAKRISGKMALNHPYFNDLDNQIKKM
T2 sequence (P14635 whole entry partner): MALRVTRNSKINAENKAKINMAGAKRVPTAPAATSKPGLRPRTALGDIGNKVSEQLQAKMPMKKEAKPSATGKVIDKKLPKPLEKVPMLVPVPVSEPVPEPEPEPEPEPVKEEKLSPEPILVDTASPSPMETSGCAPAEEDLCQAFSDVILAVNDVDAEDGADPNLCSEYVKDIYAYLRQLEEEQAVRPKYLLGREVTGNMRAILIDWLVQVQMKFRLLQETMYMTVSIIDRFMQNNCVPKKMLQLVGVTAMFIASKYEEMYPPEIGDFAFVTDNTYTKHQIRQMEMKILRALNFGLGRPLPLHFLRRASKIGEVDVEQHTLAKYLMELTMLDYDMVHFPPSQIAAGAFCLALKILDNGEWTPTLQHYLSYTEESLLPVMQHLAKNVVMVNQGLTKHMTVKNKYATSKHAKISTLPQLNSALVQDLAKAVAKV
Sequence of VEGF-R2 kinase domain (O08775 786-1343): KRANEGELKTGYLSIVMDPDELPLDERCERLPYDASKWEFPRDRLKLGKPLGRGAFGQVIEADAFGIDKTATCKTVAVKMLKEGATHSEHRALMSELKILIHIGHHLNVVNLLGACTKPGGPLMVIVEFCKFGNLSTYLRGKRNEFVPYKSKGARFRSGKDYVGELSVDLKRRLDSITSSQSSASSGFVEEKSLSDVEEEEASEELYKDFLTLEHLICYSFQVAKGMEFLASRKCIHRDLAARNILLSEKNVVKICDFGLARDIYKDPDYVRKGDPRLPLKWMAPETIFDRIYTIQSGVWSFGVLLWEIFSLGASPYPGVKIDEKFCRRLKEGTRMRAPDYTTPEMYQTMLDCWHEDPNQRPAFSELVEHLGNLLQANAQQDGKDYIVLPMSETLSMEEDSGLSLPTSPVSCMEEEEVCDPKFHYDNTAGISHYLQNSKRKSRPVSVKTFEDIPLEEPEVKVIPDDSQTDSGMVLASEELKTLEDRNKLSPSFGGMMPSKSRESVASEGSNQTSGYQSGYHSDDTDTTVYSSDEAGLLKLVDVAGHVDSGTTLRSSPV

O=C(Nc1cccc2sc(Nc3ccccc3)nc12)c1ccc(-c2ccccc2)cc1 [Cpd 34, biphenyl-4-carboxylic acid (2-phenylamino-benzothiazol-4-yl)-amide]
IC50 (CDK2:Cyclin A): 13.6 µM
IC50 (CDK1:Cyclin-B): > 100 µM
IC50 (VEGF-R2 kinase domain): > 100 µM

O=C(Nc1cccc2sc(Nc3ccccc3)nc12)c1cccs1 [Cpd 35, thiophene-2-carboxylic acid (2-phenylamino-benzothiazol-4-yl)-amide]
IC50 (CDK2:Cyclin A): > 100 µM
IC50 (CDK1:Cyclin-B): > 100 µM
IC50 (VEGF-R2 kinase domain): > 100 µM

O=C(Nc1cccc2sc(Nc3ccccc3)nc12)c1cccnc1 [Cpd 36, N-(2-phenylamino-benzothiazol-4-yl)-nicotinamide]
IC50 (CDK2:Cyclin A): 4.02 µM
IC50 (CDK1:Cyclin-B): 42.7 µM
IC50 (VEGF-R2 kinase domain): ≥ 100 µM

O=C(Nc1cccc2sc(Nc3ccccc3)nc12)c1ccco1 [Cpd 37, furan-2-carboxylic acid (2-phenylamino-benzothiazol-4-yl)-amide]
IC50 (CDK2:Cyclin A): 8.02 µM
IC50 (CDK1:Cyclin-B): > 100 µM
IC50 (VEGF-R2 kinase domain): > 100 µM

N#Cc1cccc(C(=O)Nc2cccc3sc(Nc4ccccc4)nc23)c1 [Cpd 38, 3-cyano-N-(2-phenylamino-benzothiazol-4-yl)-benzamide]
IC50 (CDK2:Cyclin A): 11 µM
IC50 (CDK1:Cyclin-B): > 100 µM
IC50 (VEGF-R2 kinase domain): > 100 µM

Cc1cc(C)cc(C(=O)Nc2cccc3sc(Nc4ccccc4)nc23)c1 [Cpd 39, 3,5-dimethyl-N-(2-phenylamino-benzothiazol-4-yl)-benzamide]
IC50 (CDK2:Cyclin A): 1.03 µM
IC50 (CDK1:Cyclin-B): 7.15 µM
IC50 (VEGF-R2 kinase domain): > 100 µM

O=C(Nc1cccc2sc(Nc3ccccc3)nc12)c1ccc2ccccc2c1 [Cpd 40, naphthalene-2-carboxylic acid (2-phenylamino-benzothiazol-4-yl)-amide]
IC50 (CDK2:Cyclin A): > 100 µM
IC50 (CDK1:Cyclin-B): > 100 µM
IC50 (VEGF-R2 kinase domain): > 100 µM

O=C(Nc1cccc2sc(Nc3ccccc3)nc12)C1CCCCC1 [Cpd 41, cyclohexanecarboxylic acid (2-phenylamino-benzothiazol-4-yl)-amide]
IC50 (CDK2:Cyclin A): 2.05 µM
IC50 (CDK1:Cyclin-B): > 100 µM
IC50 (VEGF-R2 kinase domain): ≥ 100 µM

CCc1ccc(C(=O)Nc2cccc3sc(Nc4ccccc4)nc23)s1 [Cpd 42, 5-ethyl-thiophene-2-carboxylic acid (2-phenylamino-benzothiazol-4-yl)-amide]
IC50 (CDK2:Cyclin A): > 100 µM
IC50 (CDK1:Cyclin-B): > 100 µM
IC50 (VEGF-R2 kinase domain): > 100 µM

O=C(Nc1cccc2sc(Nc3ccccc3)nc12)c1cc([N+](=O)[O-])cc([N+](=O)[O-])c1 [Cpd 43, 3,5-dinitro-N-(2-phenylamino-benzothiazol-4-yl)-benzamide]
IC50 (CDK2:Cyclin A): > 100 µM
IC50 (CDK1:Cyclin-B): > 100 µM
IC50 (VEGF-R2 kinase domain): > 100 µM

O=C(Nc1cccc2sc(Nc3ccccc3)nc12)c1c(Cl)cc(Cl)cc1Cl [Cpd 44, 2,4,6-trichloro-N-(2-phenylamino-benzothiazol-4-yl)-benzamide]
IC50 (CDK2:Cyclin A): 0.31 µM
IC50 (CDK1:Cyclin-B): 1.67 µM
IC50 (VEGF-R2 kinase domain): > 100 µM

O=C(Nc1cccc2sc(Nc3ccccc3)nc12)c1c(F)cc(F)cc1F [Cpd 45, 2,4,6-trifluoro-N-(2-phenylamino-benzothiazol-4-yl)-benzamide]
IC50 (CDK2:Cyclin A): 1.66 µM
IC50 (CDK1:Cyclin-B): > 10 µM
IC50 (VEGF-R2 kinase domain): > 100 µM

COc1cccc(OC)c1C(=O)Nc1cccc2sc(Nc3ccccc3)nc12 [Cpd 46, 2,6-dimethoxy-N-(2-phenylamino-benzothiazol-4-yl)-benzamide]
IC50 (CDK2:Cyclin A): 16.1 µM
IC50 (CDK1:Cyclin-B): > 100 µM
IC50 (VEGF-R2 kinase domain): > 100 µM

O=C(Nc1cccc2sc(Nc3ccccc3)nc12)c1c(Cl)cccc1Cl [Cpd 47, 2,6-dichloro-N-(2-phenylamino-benzothiazol-4-yl)-benzamide]
IC50 (CDK2:Cyclin A): 0.611 µM
IC50 (CDK1:Cyclin-B): 4.3 µM
IC50 (VEGF-R2 kinase domain): > 100 µM

Cc1ccc(F)c(C(=O)Nc2cccc3sc(Nc4ccc(N5CCN(C)CC5)cc4)nc23)c1F [Cpd 49, 2,6-difluoro-3-methyl-N-{2-[4-(4-methyl-piperazin-1-yl)-phenylamino]-benzothiazol-4-yl}-benzamide]
IC50 (CDK2:Cyclin A): 0.679 µM
IC50 (CDK1:Cyclin-B): 2.71 µM
IC50 (VEGF-R2 kinase domain): ≥ 100 µM

O=C(Nc1cccc2sc(Nc3ccccc3)nc12)c1cc2ccccc2s1 [Cpd 50, benzo[b]thiophene-2-carboxylic acid (2-phenylamino-benzothiazol-4-yl)-amide]
IC50 (CDK2:Cyclin A): > 100 µM
IC50 (CDK1:Cyclin-B): > 100 µM
IC50 (VEGF-R2 kinase domain): > 100 µM

O=C(Cc1ccccc1)Nc1cccc2sc(Nc3ccccc3)nc12 [Cpd 51, 2-phenyl-N-(2-phenylamino-benzothiazol-4-yl)-acetamide]
IC50 (CDK2:Cyclin A): 1.19 µM
IC50 (CDK1:Cyclin-B): > 100 µM
IC50 (VEGF-R2 kinase domain): > 100 µM

O=C(Nc1cccc2sc(Nc3ccccc3)nc12)C1CCCC1 [Cpd 52, cyclopentanecarboxylic acid (2-phenylamino-benzothiazol-4-yl)-amide]
IC50 (CDK2:Cyclin A): 1.37 µM
IC50 (CDK1:Cyclin-B): > 100 µM
IC50 (VEGF-R2 kinase domain): > 100 µM

O=C(Nc1cccc2sc(Nc3ccccc3)nc12)Oc1ccccc1 [Cpd 53, (2-phenylamino-benzothiazol-4-yl)-carbamic acid phenyl ester]
IC50 (CDK2:Cyclin A): > 100 µM
IC50 (CDK1:Cyclin-B): > 100 µM
IC50 (VEGF-R2 kinase domain): > 100 µM

O=C(CCc1ccccc1)Nc1cccc2sc(Nc3ccccc3)nc12 [Cpd 54, 3-phenyl-N-(2-phenylamino-benzothiazol-4-yl)-propionamide]
IC50 (CDK2:Cyclin A): > 100 µM
IC50 (CDK1:Cyclin-B): > 100 µM
IC50 (VEGF-R2 kinase domain): > 100 µM

O=C(Nc1cccc2sc(Nc3ccccc3)nc12)C1CCCCCC1 [Cpd 55, cycloheptanecarboxylic acid (2-phenylamino-benzothiazol-4-yl)-amide]
IC50 (CDK2:Cyclin A): > 100 µM
IC50 (CDK1:Cyclin-B): > 100 µM
IC50 (VEGF-R2 kinase domain): > 100 µM

Cc1nnsc1C(=O)Nc1cccc2sc(Nc3ccccc3)nc12 [Cpd 56, 4-methyl-[1,2,3]thiadiazole-5-carboxylic acid (2-phenylamino-benzothiazol-4-yl)-amide]
IC50 (CDK2:Cyclin A): > 10 µM
IC50 (CDK1:Cyclin-B): > 100 µM
IC50 (VEGF-R2 kinase domain): > 100 µM

CC(C)(C)C(=O)Nc1cccc2sc(Nc3ccccc3)nc12 [Cpd 57, 2,2-dimethyl-N-(2-phenylamino-benzothiazol-4-yl)-propionamide]
IC50 (CDK2:Cyclin A): 13.3 µM
IC50 (CDK1:Cyclin-B): > 100 µM
IC50 (VEGF-R2 kinase domain): > 100 µM

O=C(CC1CCCCC1)Nc1cccc2sc(Nc3ccccc3)nc12 [Cpd 58, 2-cyclohexyl-N-(2-phenylamino-benzothiazol-4-yl)-acetamide]
IC50 (CDK2:Cyclin A): > 100 µM
IC50 (CDK1:Cyclin-B): > 100 µM
IC50 (VEGF-R2 kinase domain): > 100 µM

O=C(Nc1cccc2sc(Nc3ccccc3)nc12)c1cc2c(Cl)cc(Cl)cc2[nH]1 [Cpd 59, 4,6-dichloro-1H-indole-2-carboxylic acid (2-phenylamino-benzothiazol-4-yl)-amide]
IC50 (CDK2:Cyclin A): > 100 µM
IC50 (CDK1:Cyclin-B): > 100 µM
IC50 (VEGF-R2 kinase domain): > 100 µM

CC(C)(C)NC(=O)Nc1cccc2sc(Nc3ccccc3)nc12 [Cpd 60, 1-tert-butyl-3-(2-phenylamino-benzothiazol-4-yl)-urea]
IC50 (CDK2:Cyclin A): > 100 µM
IC50 (CDK1:Cyclin-B): > 100 µM
IC50 (VEGF-R2 kinase domain): > 100 µM

O=C(Nc1cccc2sc(Nc3ccccc3)nc12)NC1CCCCC1 [Cpd 61, 1-cyclohexyl-3-(2-phenylamino-benzothiazol-4-yl)-urea]
IC50 (CDK2:Cyclin A): > 100 µM
IC50 (CDK1:Cyclin-B): > 100 µM
IC50 (VEGF-R2 kinase domain): > 100 µM
